{
  "source": "patent US20250066323A1",
  "about": "“INHIBITORS OF HUMAN RESPIRATORY SYNCYTIAL VIRUS AND METAPNEUMOVIRUS” (priority 2023, published 2025)",
  "key": {"[1]": {"test_system": "RSV-A2-GFP", "assay": "RSV-A2-GFP viral replication assay", "assay_type": "cell-based, Human Respiratory Syncytial Virus", "details": "read-out: RSV EC50; Calu-1 cells, RSV-A2-GFP MOI=1.2, 96 hrs, GFP-expressing cells counted", "summary_of_the_method": "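Calu-1 cells in DMEM/2% FBS infected with RSV-A2 expressing GFP between P and M genes (24,000 pfu/ml, MOI=1.2), 10-point 3-fold dilutions (typical final 403 nM-0.02 nM or 40.3 nM-0.002 nM). After 96 h at 37°C, GFP-positive cells imaged; same-well CellTiter-Glo for cytotoxicity. IC50/CC50 by 4-parameter logistic fit.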"}, "[2]": {"test_system": "hMPV-GFP", "assay": "hMPV-GFP viral replication assay", "assay_type": "cell-based, human metapneumovirus", "details": "read-out: hMPV EC50; VERO cells, hMPV-GFP MOI=1.25, 48 hrs, GFP-expressing cells counted", "procedure": "GFP expressing rgHMPV #3 p3 was generated in Dr. Buchholz's lab (Biacchesi S. et al., J Virol. 2007 June; 81(11): 6057-6067.) and propagated in VERO cells (kidney tissue derived from a normal, adult African green monkey. ATCC Cat #CCL-81) with infection Multiplicity of Infection (MOI) of 0.1. Virus was harvested 4 days after infection by collecting all culture material and freeze-thaw the viral culture in liquid nitrogen twice. To generating virus working stocks, thaw frozen samples in 37° C. water bath then centrifuge at 218 g for 15 min at 4° C. Add 1/10 of 10×SPG (Biological Industries 06-3061-01-5A), mix, aliquot supernatant, and quick-freeze in liquid nitrogen then transfer to −80° C. freezer for storage. Virus titer was determined by performing titration test in 96-well plates and calculate approximate virus titer using GFP event/well data.\nCompound plates were prepared by dispensing compounds dissolved in DMSO into wells of 384 well coming 3985 polystyrene flat clear bottom optical imaging microplates (202.5 nL/well) using an ECHO acoustic dispenser. Each compound was tested in a 10-point serial 3-fold dilution (typical final concentrations: 40,300 nM-2 nM). […] Continuous culture of VERO cells were maintained in complete culture media (OptiMEM supplemented with 2 mM GlutaMAX™ and 100 U/ml Penicillin-Streptomycin). To set up the assay, trypsinize VERO cells with 0.25% Trypsin-EDTA until cells dislodge, then re-suspend cells with 1 mL FBS. Spin down cells at 300 g for 5 min and wash cells twice in culture media, then count cells using default parameters on ViCell. Cells were then diluted to 100,000 cells/ml (5,000 cells/50 μl) in complete culture media+TrypLE Select (80 μl/ml). Add hMPV-GFP virus to cells at 125,000 pfu/ml (MOI=1.25). Mix by gentle inversion. 10 μl/well of 100% DMSO was dispensed to CellTiter-Glo (CTG) assay Max_E controls wells. Dispense cells at 50 μl/well using Bravo and 50 μl filtered tips into compound plates. Cover plates with MicroClime lids loaded with 7.5 ml of assay media to minimize evaporation. Lightly shake plate for 10 minutes at room temperature then incubate at 37 degrees C. and 5% CO2 for 48 hrs. Following incubation, distinct, GFP-expressing cells are counted using an Acumen imaging system with appropriate settings. A same-well CTG assay is performed by adding 10 μl/well reconstituted CellTiter-Glo reagent (Promega G7573) and reading plates on PerkinElmer Envision according to manufacturer's instructions. Raw data were loaded and analyzed in ActivityBase. Antiviral IC50 and cytotoxicity CC50 values were determined using a 4 parameter logistic fit based on the Levenberg-Marquardt algorithm. Model: 205-4 Parameter Logistic."}},
  "data": [
    {"smiles": "Cn1nc(-c2cscn2)cc1C(=O)NCC(C)(O)c1cc2c(c(-c3ccc(F)cc3)n1)OCC2(C)N", "note": "(single isomer, unassigned) [Example 28-D]", "values": [
      {"measurement": "EC50", "setting": "[1]", "value": "10 to 100", "unit": "nM"},
      {"measurement": "EC50", "setting": "[2]", "value": "> 100", "unit": "nM"}
    ]}
  ]
}
